Data reported in patent US12522615B2, “Macrocyclic compounds and derivatives as EGFR inhibitors” (Boehringer Ingelheim International GmbH, priority 2019, dated 2026).

molecular target: EGFR del19 T790M C797S (Homo sapiens, UniProt P00533, C797S/T790M, form not given); assay: pEGFR assay: phosphorylation of EGFR at Tyr1068 in Ba/F3 cells (AlphaScreen Surefire); format: cell-based; conditions: 4 h
Experimental: Transduced cells were selected using puromycin. Following selection, IL-3 was withdrawn and IL-3 independent cells cultured. p-EGFR Tyr1068 was determined using the AlphaScreen Surefire pEGF Receptor (Tyr1068) Assay (PerkinElmer, TGRERS). […] Subsequently, 60.000 cells/well in 60 μL were added. Cells were incubated with compound for 4 h at 37° C. […] The mixture was incubated at room temperature with shaking (700 rpm) for 20 min. After centrifugation, 4 μL of the lysate were transferred to Proxiplates. […] Plates were shaken for 1 min (1400 rpm) and incubated for 2 h at room temperature in the dark.

Chain of EGFR del19 T790M C797S (P00533 25-1210 T790M/C797S limits assumed, form open): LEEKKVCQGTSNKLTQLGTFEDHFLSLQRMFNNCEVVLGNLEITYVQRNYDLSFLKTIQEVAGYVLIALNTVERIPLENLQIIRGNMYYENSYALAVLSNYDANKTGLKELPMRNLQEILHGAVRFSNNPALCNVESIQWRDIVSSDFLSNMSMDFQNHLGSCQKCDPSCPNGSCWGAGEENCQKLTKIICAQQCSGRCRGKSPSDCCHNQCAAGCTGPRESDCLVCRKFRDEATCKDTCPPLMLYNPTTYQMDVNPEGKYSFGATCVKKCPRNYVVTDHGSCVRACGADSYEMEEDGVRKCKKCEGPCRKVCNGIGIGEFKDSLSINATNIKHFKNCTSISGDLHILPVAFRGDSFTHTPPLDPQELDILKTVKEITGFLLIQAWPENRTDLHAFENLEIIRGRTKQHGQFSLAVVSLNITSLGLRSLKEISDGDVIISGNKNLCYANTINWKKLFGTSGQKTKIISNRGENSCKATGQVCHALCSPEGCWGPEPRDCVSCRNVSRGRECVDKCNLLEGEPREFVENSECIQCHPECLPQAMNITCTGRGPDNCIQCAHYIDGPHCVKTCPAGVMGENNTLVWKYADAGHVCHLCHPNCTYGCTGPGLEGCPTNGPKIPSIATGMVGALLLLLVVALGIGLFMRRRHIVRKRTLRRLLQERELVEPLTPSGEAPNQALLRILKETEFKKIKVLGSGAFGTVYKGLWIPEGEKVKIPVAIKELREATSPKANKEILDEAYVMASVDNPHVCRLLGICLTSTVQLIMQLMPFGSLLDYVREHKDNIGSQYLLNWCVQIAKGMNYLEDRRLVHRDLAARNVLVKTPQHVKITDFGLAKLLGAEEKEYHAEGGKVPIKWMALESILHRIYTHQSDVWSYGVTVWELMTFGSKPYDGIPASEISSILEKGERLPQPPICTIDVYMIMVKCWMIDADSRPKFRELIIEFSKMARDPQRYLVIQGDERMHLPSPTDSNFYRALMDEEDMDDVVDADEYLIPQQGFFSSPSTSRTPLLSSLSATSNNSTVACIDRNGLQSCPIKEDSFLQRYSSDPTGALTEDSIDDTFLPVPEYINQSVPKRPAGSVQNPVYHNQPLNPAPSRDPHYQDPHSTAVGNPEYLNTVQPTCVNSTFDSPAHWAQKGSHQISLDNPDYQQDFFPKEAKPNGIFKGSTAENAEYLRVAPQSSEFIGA

SMILES	IC50
Cc1cc2cc(n1)-c1cnn(C)c1OC[C@@H](C)[C@@H](O)CCN1/C(=N/C2=O)Nc2ccccc21 [Compound I-017]	8.9 nM
Cc1cc2cc(n1)-c1cnn(C)c1OCCC[C@@H](C)CN1/C(=N/C2=O)Nc2ccc(N3CCN(C)CC3)cc21 [Compound I-019]	0.6 nM
CC1(C)CCOc2ccccc2-c2cc(ccn2)C(=O)/N=C2\Nc3ccccc3N2CC1 [Compound I-054]	25 nM
C[C@@H]1CCOc2ccccc2-c2cc(ccn2)C(=O)/N=C2\Nc3ccccc3N2CC1 [Compound I-048]	15 nM
C[C@@H]1CCCOc2c(cnn2C)-c2cc(cc(Cl)n2)C(=O)/N=C2\Nc3cnn(C)c3N2C1 [Compound I-029]	7.5 nM
COC(=O)c1ccc2c(c1)N1C[C@H](C)CCCOc3c(cnn3C)-c3cc(cc(C)n3)C(=O)/N=C/1N2 [Compound I-042]	2.3 nM
C[C@@H]1CCCOc2c(cnn2C)-c2cc(ccn2)C(=O)/N=C2\Nc3cn(C)nc3N2C1 [Compound I-044]	3.4 nM
C[C@@H]1CCCOc2c(cnn2C)-c2cc(cc(C#N)n2)C(=O)/N=C2\Nc3ccccc3N2C1 [Compound I-004]	1.3 nM
Cc1cc2cc(n1)-c1cnn(C)c1OC[C@@H](C)[C@H](O)CCN1/C(=N/C2=O)Nc2ccccc21 [Compound I-016]	0.8 nM
Cc1cc2cc(n1)-c1cnn(C)c1OC[C@@H](C)CCCN1/C(=N/C2=O)Nc2cnn(C)c21 [Compound I-040]	1.7 nM
Cc1cc2cc(n1)-c1cnn(C)c1OCCCCCCN1/C(=N/C2=O)Nc2ccccc21 [Compound I-002]	4.2 nM
Cc1cc2cc(n1)-c1ccc(F)cc1OCCCCCN1/C(=N/C2=O)Nc2ccccc21 [Compound I-056]	69 nM
Cc1cc2cc(n1)-c1cnn(C)c1OCCCCCN1/C(=N/C2=O)Nc2ccccc21 [Compound I-001]	1.2 nM
C[C@@H]1CCCOc2c(cnn2C)-c2cc(ccn2)C(=O)/N=C2\Nc3cnn(C)c3N2C1 [Compound I-036]	0.7 nM
Cc1cc2cc(n1)-c1cnn(C)c1OCC[C@H](O)CCN1/C(=N/C2=O)Nc2ccccc21 [Compound I-009]	1 nM
O=C1/N=C2\Nc3ccccc3N2CCCCCOc2ccccc2-c2cc1ccn2 [Compound I-047]	6.2 nM
Cc1cc2cc(n1)-c1ccccc1OCCCCCN1/C(=N/C2=O)Nc2ccccc21 [Compound I-049]	16 nM
Cc1cc2cc(n1)-c1cnn(C)c1OCCC(O)CCN1/C(=N/C2=O)Nc2cnn(C)c21 (stereo not shown) [Compound I-030]	28 nM
CC[C@@H]1CCCOc2c(cnn2C)-c2cc(cc(C)n2)C(=O)/N=C2\Nc3ccc(N4CCN(C)CC4)cc3N2C1 [Compound I-020]	0.6 nM
Cc1cc2cc(n1)-c1cnn(C)c1OCCC[C@@H](C)CN1/C(=N/C2=O)Nc2ccc(N3CCOCC3)cc21 [Compound I-032]	0.6 nM
Cn1ncc2c1OCCC(O)CCN1/C(=N/C(=O)c3cc(Cl)nc-2c3)Nc2ccccc21 (stereo not shown) [Compound I-012]	5.2 nM
Cc1cc2cc(n1)-c1cnn(C)c1OCCCCN1/C(=N/C2=O)Nc2ccccc21 [Compound I-055]	66 nM
Cc1cc2cc(n1)-c1cnn(C)c1OCCCCCCCN1/C(=N/C2=O)Nc2ccccc21 [Compound I-052]	23 nM
Cc1cc2cc(n1)-c1cnn(C)c1OCC[C@H](O)[C@@H](C)CN1/C(=N/C2=O)Nc2ccccc21 [Compound I-015]	0.6 nM
Cc1cc2cc(n1)-c1cnn(C)c1OCCC(O)CCN1/C(=N/C2=O)Nc2ccccc21 (stereo not shown) [Compound I-010]	1.2 nM
Cc1cc2cc(n1)-c1cnn(C)c1OCCC[C@@H](C)CN1/C(=N/C2=O)Nc2ccc(C(=O)N(C)C)cc21 [Compound I-038]	1.3 nM

SMILES	IC50
Cc1cc2cc(n1)-c1cnn(C)c1OCCC[C@@H](C)CN1/C(=N/C2=O)Nc2cn(C)nc21 [Compound I-024]	0.6 nM
Cc1cc2cc(n1)-c1cnn(C)c1OCCC[C@@H](C)CN1/C(=N/C2=O)Nc2cnn(C)c21 [Compound I-025]	0.8 nM
C[C@@H]1CCCOc2c(cnn2C)-c2cc(cc(F)n2)C(=O)/N=C2\Nc3ccccc3N2C1 [Compound I-034]	0.7 nM
Cc1cc2cc(n1)-c1cnn(C)c1OCCC[C@@H](C)CN1/C(=N/C2=O)Nc2ccc(Br)cc21 [Compound I-005]	4 nM
COc1cccc2c1N1C[C@H](C)CCCOc3c(cnn3C)-c3cc(cc(C)n3)C(=O)/N=C/1N2 [Compound I-041]	1.9 nM
C[C@@H]1CCCOc2c(cnn2C)-c2cc(cc(Cl)n2)C(=O)/N=C2\Nc3ccc(CN4CCN(C)CC4)cc3N2C1 [Compound I-022]	0.8 nM
Cc1cc2cc(n1)-c1cnn(C)c1OC[C@H](O)C[C@@H](C)CN1/C(=N/C2=O)Nc2ccccc21 [Compound I-014]	4.2 nM
Cc1cc2cc(n1)-c1cnn(C)c1OC[C@@H](O)C[C@@H](C)CN1/C(=N/C2=O)Nc2ccccc21 [Compound I-013]	0.7 nM
Cc1cc2cc(n1)-c1cnn(C)c1OCC[C@@H](O)CCN1/C(=N/C2=O)Nc2ccccc21 [Compound I-011]	6.5 nM
O=C1/N=C2\Nc3ccccc3N2CCCCCOc2cc(F)ccc2-c2cc1ccn2 [Compound I-053]	24 nM
Cc1cc2cc(n1)-c1cnn(C)c1OCCC[C@@H](C)CN1/C(=N/C2=O)Nc2cc(N3CCN(C)CC3)ccc21 [Compound I-033]	0.6 nM
C[C@H]1CCCOc2ccccc2-c2cc(ccn2)C(=O)/N=C2\Nc3ccccc3N2C1 [Compound I-051]	20 nM
Cc1cc2cc(n1)-c1cnn(C)c1OCC[C@@H]1CC[C@@H](C1)N1/C(=N/C2=O)Nc2ccccc21 [Compound I-006]	17 nM
Cc1cc2cc(n1)-c1cnn(C)c1OCCC[C@@H](C)CN1/C(=N/C2=O)Nc2ccccc21 [Compound I-003]	0.8 nM
C[C@@H]1C[C@H](O)COc2c(cnn2C)-c2cc(cc(Cl)n2)C(=O)/N=C2\Nc3cn(C)nc3N2C1 [Compound I-028]	3.5 nM
CC1(C)CCCOc2ccccc2-c2cc(ccn2)C(=O)/N=C2\Nc3ccccc3N2C1 [Compound I-050]	17 nM
Cc1cc2cc(n1)-c1cnn(C)c1OCC[C@@H](O)[C@H](C)CN1/C(=N/C2=O)Nc2ccccc21 [Compound I-045]	3.6 nM
Cc1cc2cc(n1)-c1cnn(C)c1OC[C@@H](C)CCCN1/C(=N/C2=O)Nc2cc(N3CCN(C)CC3)ccc21 [Compound I-043]	2.3 nM
Cc1cc2cc(n1)-c1cnn(C)c1OCCC[C@@H](C)CN1/C(=N/C2=O)Nc2ccc(OCCN3CCN(C)CC3)cc21 [Compound I-018]	0.5 nM
C[C@@H]1CCCOc2c(cnn2C)-c2cc(cc(Cl)n2)C(=O)/N=C2\Nc3cn(C)nc3N2C1 [Compound I-026]	1.5 nM
Cc1cc2cc(n1)-c1cnn(C)c1OC[C@@H](C)CCCN1/C(=N/C2=O)Nc2ccc(N3CCN(C)CC3)cc21 [Compound I-031]	0.5 nM
Cc1cc2cc(n1)-c1cnn(C)c1OCCC[C@@H](C)CN1/C(=N/C2=O)Nc2ccc(C(=O)N3CCN(C)CC3)cc21 [Compound I-039]	1.6 nM
Cc1cc2cc(n1)-c1cnn(C)c1OCCC[C@@H](C)CN1/C(=N/C2=O)Nc2ccc(CN(C)C)cc21 [Compound I-035]	0.7 nM
C[C@@H]1CCCOc2c(cnn2C)-c2cc(cc(F)n2)C(=O)/N=C2\Nc3cn(C)nc3N2C1 [Compound I-023]	0.5 nM
Cc1cc2cc(n1)-c1cnn(C)c1OCCC[C@H](O)CN1/C(=N/C2=O)Nc2ccccc21 [Compound I-008]	7.4 nM
Cc1cc2cc(n1)-c1cnn(C)c1OCCC[C@@H](O)CN1/C(=N/C2=O)Nc2ccccc21 [Compound I-007]	1.1 nM

molecular target: EGFR (mutated) 695-1022, T790M, C797S, L858R (Homo sapiens (Human), UniProt P00533, C797S/L858R/T790M); assay: Biochemical EGFR inhibition assay (poly-GT substrate phosphorylation, TR-FRET LANCE Ultra); conditions: 100 μM ATP; read-out: LR_TM_CS (100 μM ATP)
Experimental: (§1) Initially, the inhibitory effect of compounds according to the invention is measured in biochemical assays which measure the phosphorylation activity of EGFR enzyme forms on poly-GT substrate in the presence of different concentrations of ATP (5 μM and 100 μM final assay concentration).
(§2) The following enzyme forms of EGFR are representative examples that can be used in these assays at the given concentrations:
(§3) For the chosen highest assay concentration of 100 μM, 150 nL of compound solution is transferred from a 10 mM DMSO compound stock solution. A series of eleven fivefold dilutions per compound is transferred to the assay plate, compound dilutions are tested in duplicates. DMSO is added as backfill to a total volume of 150 nL. The assay runs on a fully automated robotic system.
(§4) 5 μL of EGFR enzyme form in assay buffer (50 mM HEPES pH 7.3, 10 mM MgCl2, 1 mM EGTA, 0.01% Tween 20, 2 mM DTT) are dispensed into columns 1-23, than 5 μL of ATP and ULight-poly-GT substrate (PerkinElmer; TRF0100-M) mix in assay buffer is added to all wells (final assay concentration of the ULight-poly-GT substrate 200 nM). Each of the different EGFR enzyme form assays is available at low ATP (final assay concentration 5 μM) and high ATP levels (final assay concentration 100 μM). After 90 minutes incubation at room temperature 5 μL EDTA (final assay concentration 50 mM) and LANCE Eu-anti-P-Tyr (PT66) antibody (PerkinElmer, AD0069) (final assay concentration 6 nM) mix are added to stop the reaction and start the binding of the antibody. […] Each plate contains 16 wells of a negative control (diluted DMSO instead of test compound; w EGFR enzyme form; column 23) and 16 wells of a positive control (diluted DMSO instead of test compound; w/o EGFR enzyme form; column 24). Negative and positive control values are used for normalization and IC50 values are calculated and analysed using a 4 parametric logistic model.
(§5) These biochemical EGFR enzyme form compound dose-response assays quantify the kinase activity via phosphorylation of a tagged poly-GT substrate. The results of the assay are provided as IC50 values.

Chain of EGFR (mutated) 695-1022, T790M, C797S, L858R (P00533 695-1022 T790M/C797S/L858R): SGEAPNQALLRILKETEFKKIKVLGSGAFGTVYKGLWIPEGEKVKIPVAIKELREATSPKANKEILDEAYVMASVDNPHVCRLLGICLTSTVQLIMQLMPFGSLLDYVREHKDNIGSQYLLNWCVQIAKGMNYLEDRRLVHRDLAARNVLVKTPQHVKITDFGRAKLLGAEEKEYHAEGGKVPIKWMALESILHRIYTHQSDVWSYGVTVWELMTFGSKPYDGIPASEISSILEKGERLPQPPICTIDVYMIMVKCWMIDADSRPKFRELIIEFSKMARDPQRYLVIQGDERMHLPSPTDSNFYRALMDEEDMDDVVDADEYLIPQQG

SMILES	IC50
Cc1cc2cc(n1)-c1cnn(C)c1OCCCCCN1/C(=N/C2=O)Nc2ccccc21 [Compound I-001]	6 nM
Cc1cc2cc(n1)-c1cnn(C)c1OCCC[C@@H](C)CN1/C(=N/C2=O)Nc2ccc(Br)cc21 [Compound I-005]	16 nM
Cc1cc2cc(n1)-c1cnn(C)c1OCCC[C@@H](C)CN1/C(=N/C2=O)Nc2ccccc21 [Compound I-003]	3 nM

molecular target: EGFR wt (Homo sapiens (Human), UniProt P00533); assay: as above; conditions: 100 μM ATP; read-out: wt (100 μM ATP)
Experimental: as §1, §2, §3, §4, §5

Chain of EGFR wt (P00533 25-1210): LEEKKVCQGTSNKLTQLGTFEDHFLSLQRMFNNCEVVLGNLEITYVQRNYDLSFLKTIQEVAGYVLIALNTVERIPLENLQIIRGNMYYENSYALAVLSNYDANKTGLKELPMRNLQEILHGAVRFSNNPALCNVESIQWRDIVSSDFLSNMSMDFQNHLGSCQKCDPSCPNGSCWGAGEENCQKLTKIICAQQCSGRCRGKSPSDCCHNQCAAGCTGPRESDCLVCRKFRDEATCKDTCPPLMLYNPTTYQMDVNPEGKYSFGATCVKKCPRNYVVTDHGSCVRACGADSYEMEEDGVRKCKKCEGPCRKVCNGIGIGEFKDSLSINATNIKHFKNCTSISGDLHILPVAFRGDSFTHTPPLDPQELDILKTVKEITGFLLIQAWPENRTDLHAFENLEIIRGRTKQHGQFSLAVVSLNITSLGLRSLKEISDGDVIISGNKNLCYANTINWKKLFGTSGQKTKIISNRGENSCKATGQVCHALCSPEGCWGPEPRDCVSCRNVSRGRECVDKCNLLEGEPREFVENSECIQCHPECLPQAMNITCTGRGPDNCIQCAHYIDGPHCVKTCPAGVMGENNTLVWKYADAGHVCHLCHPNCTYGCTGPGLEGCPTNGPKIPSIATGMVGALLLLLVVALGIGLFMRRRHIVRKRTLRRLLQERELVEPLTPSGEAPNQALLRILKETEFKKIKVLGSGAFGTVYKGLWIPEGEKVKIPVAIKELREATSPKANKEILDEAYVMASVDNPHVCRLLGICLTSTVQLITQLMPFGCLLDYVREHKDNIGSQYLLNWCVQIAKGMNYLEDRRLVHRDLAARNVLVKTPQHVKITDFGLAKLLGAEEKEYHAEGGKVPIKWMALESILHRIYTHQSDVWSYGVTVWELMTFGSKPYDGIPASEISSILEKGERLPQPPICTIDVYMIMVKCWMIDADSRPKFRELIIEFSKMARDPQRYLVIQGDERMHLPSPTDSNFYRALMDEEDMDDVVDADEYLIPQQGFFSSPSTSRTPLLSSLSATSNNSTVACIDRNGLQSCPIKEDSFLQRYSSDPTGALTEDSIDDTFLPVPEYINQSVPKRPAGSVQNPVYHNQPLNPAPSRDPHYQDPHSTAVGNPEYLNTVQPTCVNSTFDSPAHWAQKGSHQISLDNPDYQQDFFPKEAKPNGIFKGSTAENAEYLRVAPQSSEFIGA

SMILES	IC50
Cc1cc2cc(n1)-c1cnn(C)c1OCCCCCN1/C(=N/C2=O)Nc2ccccc21 [Compound I-001]	> 100000 nM
Cc1cc2cc(n1)-c1cnn(C)c1OCCC[C@@H](C)CN1/C(=N/C2=O)Nc2ccc(Br)cc21 [Compound I-005]	> 100000 nM
Cc1cc2cc(n1)-c1cnn(C)c1OCCC[C@@H](C)CN1/C(=N/C2=O)Nc2ccccc21 [Compound I-003]	900 nM
